Patent publication US10640495B2, “Heterocycle derivatives having TrkA inhibitory activity” (Shionogi & Co., Ltd., priority 2015, dated 2020)
Read-outs that look alike come from different tables or passages of the source.

Target: human TrkA (Homo sapiens (Human), UniProt P04629)
Assay: Human TrkA inhibition assay (Test Example 2)
Type: biochemical
Method in brief: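 Recombinant TrkA (1 nmol/L) was preincubated 15 min at room temperature with compound in HEPES/MgCl2/DTT buffer, then reacted with FL-peptide 27 (1.5 μmol/L) and ATP (500 μmol/L) for 120 min at 37 °C. After EDTA stop, substrate phosphorylation was read by microfluidic mobility shift. IC50 came from logistic regression over 3-fold dilution series.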

[1] = human TrkA 1 nmol/L, ATP 500 μmol/L, 120 min at 37° C., read-out: IC50 values (TrkA phosphorylation inhibition)
[2] = Table 157, human TrkA inhibition, read-out: IC50
[3] = Table 156, human TrkA inhibition, read-out: IC50
[4] = Table 154, human TrkA inhibition, read-out: IC50
[5] = Table 153, human TrkA inhibition, read-out: IC50
[6] = Table 155, human TrkA inhibition, read-out: IC50

human TrkA, sequence (P04629 440-796): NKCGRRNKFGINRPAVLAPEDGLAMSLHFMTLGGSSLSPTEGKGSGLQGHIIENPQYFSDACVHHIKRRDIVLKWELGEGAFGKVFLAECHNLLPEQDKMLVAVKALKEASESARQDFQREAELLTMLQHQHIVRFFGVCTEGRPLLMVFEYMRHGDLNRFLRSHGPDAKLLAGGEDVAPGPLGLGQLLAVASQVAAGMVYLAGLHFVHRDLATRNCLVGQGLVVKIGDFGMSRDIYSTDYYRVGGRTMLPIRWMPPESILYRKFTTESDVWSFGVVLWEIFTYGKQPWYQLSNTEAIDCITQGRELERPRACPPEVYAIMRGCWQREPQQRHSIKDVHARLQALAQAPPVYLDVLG

CNC(=O)c1cc(-c2nn(-c3ccccc3)c(NC(=O)N[C@@H]3C[C@@H](CCOC)O[C@H]3c3ccnc(F)c3)c2C)cnc1OC [Compound I-319]
IC50 [1]: 1.2 nM

CCN1C[C@@H](NC(=O)Nc2c(C)c(OC3CN(C)C3)nn2-c2ccccc2)[C@H](c2ccc(F)c(F)c2)O1 (racemic) [Compound I-632]
IC50 [2]: 100 to 1000 nM

COCCN1C[C@@H](NC(=O)Nc2c(C)c(OC3CN(C(=O)OC(C)(C)C)C3)nn2-c2ccccc2)[C@H](c2ccc(F)c(F)c2)O1 [Compound I-573]
IC50 [3]: < 100 nM

CCN1C[C@@H](NC(=O)Nc2c(C)c(OCC3CNC3)nn2-c2ccccc2)[C@H](c2ccc(F)c(F)c2)O1 (racemic) [Compound I-657]
IC50 [2]: < 100 nM

COCCN1C[C@@H](NC(=O)Nc2c(C)c(-c3cnc(C(N)=O)c(OC)c3)nn2-c2ccccc2)[C@H](c2ccnc(F)c2)O1 (racemic) [Compound I-317]
IC50 [4]: < 100 nM

CCNC(=O)c1ncc(-c2nn(-c3ccccc3)c(NC(=O)N[C@@H]3CN(CCOC)O[C@H]3c3ccnc(F)c3)c2C)cc1C (racemic) [Compound I-167]
IC50 [5]: < 100 nM

COCCN1C[C@@H](NC(=O)Nc2c(C)c(-c3cnc4c(c3)OCCO4)nn2-c2ccccc2)[C@H](c2ccnc(F)c2)O1 (racemic) [Compound I-427]
IC50 [6]: < 100 nM

COCCN1C[C@@H](NC(=O)Nc2c(C)c(-c3cnc(SC)nc3)nn2-c2ccccc2)[C@H](c2ccnc(F)c2)O1 (racemic) [Compound I-250]
IC50 [4]: < 100 nM

COCCN1C[C@@H](NC(=O)Nc2c(C)c(-c3ccnc(CN(C)C)c3)nn2-c2ccccc2)[C@H](c2ccc(F)c(F)c2)O1 [Compound I-618]
IC50 [2]: < 100 nM

COCCN1C[C@@H](NC(=O)Nc2c(C)c(-c3ccc4nc(C(N)=O)cn4c3)nn2-c2ccccc2)[C@H](c2cnc(F)c(F)c2)O1 (racemic) [Compound I-309]
IC50 [1]: 2 nM

COCCN1C[C@@H](NC(=O)Nc2c(C)c(-c3cnc4nn(C(F)F)cc4c3)nn2-c2ccccc2)[C@H](c2ccnc(F)c2)O1 (racemic) [Compound I-331]
IC50 [6]: < 100 nM

COCCN1C[C@@H](NC(=O)Nc2c(C)c(-c3cnn(C)c3)nn2-c2ccccc2)[C@H](c2ccnc(Cl)c2)O1 (racemic) [Compound I-9]
IC50 (Table 152, human TrkA inhibition, read-out: IC50_nM): < 100 nM

COCCN1C[C@@H](NC(=O)Nc2c(C)c(-c3ccc4nc(C(N)=O)cn4c3)nn2-c2ccccc2)[C@H](c2ccc(F)c(F)c2)O1 [Compound I-310]
IC50 [4]: < 100 nM

COCCN1C[C@@H](NC(=O)Nc2c(C)c(-c3cnc(C4=CCN(C)CC4)nc3)nn2-c2ccccc2)[C@H](c2ccnc(F)c2)O1 (racemic) [Compound I-445]
IC50 [6]: < 100 nM

COCCN1C[C@@H](NC(=O)Nc2c(C)c(OCC3CNCCO3)nn2-c2ccccc2)[C@H](c2ccc(F)c(F)c2)O1 (single isomer, unassigned) [Compound I-575]
IC50 [3]: < 100 nM

COCCN1C[C@@H](NC(=O)Nc2c(C)c(-c3cnc4c(c3)OCO4)nn2-c2ccccc2)[C@H](c2ccnc(F)c2)O1 (racemic) [Compound I-606]
IC50 [2]: < 100 nM

COCCN1C[C@@H](NC(=O)Nc2c(C)c(-c3cnc(C)nc3)nn2-c2ccccc2)[C@H](c2cnc(F)c(F)c2)O1 (racemic) [Compound I-45]
IC50 [5]: < 100 nM

COCCN1C[C@@H](NC(=O)Nc2c(C)c(-c3ccc(C#N)nc3)nn2-c2ccccc2)[C@H](c2ccc(F)c(F)c2)O1 (racemic) [Compound I-129]
IC50 [5]: < 100 nM

COCCN1C[C@@H](NC(=O)Nc2c(C)c(-c3ccc(C)nc3)nn2-c2ccccc2)[C@H](c2ccnc(F)c2)O1 (racemic) [Compound I-327]
IC50 [6]: < 100 nM

COCCN1C[C@@H](NC(=O)Nc2c(C)c(C3=CCN(C(C)=O)CC3)nn2-c2ccccc2)[C@H](c2cnc(F)c(F)c2)O1 (racemic) [Compound I-49]
IC50 [5]: < 100 nM

COCCN1C[C@@H](NC(=O)Nc2c(C)c(-c3cnc4c(c3)N(C)C(CO)CO4)nn2-c2ccccc2)[C@H](c2ccnc(F)c2)O1 (mixture of isomers) [Compound I-338]
IC50 [6]: < 100 nM

CCN1CCC(NC(=O)c2ccc(-c3nn(-c4ccccc4)c(NC(=O)N[C@@H]4CN(CCOC)O[C@H]4c4ccc(F)c(F)c4)c3C)cc2)CC1 (racemic) [Compound I-36]
IC50 [1]: 1.4 nM

COCCN1C[C@@H](NC(=O)Nc2c(C)c(-c3cnc(N4CCC5(COC5)C4)nc3)nn2-c2ccccc2)[C@H](c2ccnc(F)c2)O1 (racemic) [Compound I-482]
IC50 [6]: < 100 nM

COCCN1C[C@@H](NC(=O)Nc2c(C)c(-c3cnc(C(=O)N[C@@H]4CCOC4)c(C)c3)nn2-c2ccccc2)[C@H](c2ccnc(F)c2)O1 [Compound I-172]
IC50 [5]: < 100 nM

COCCN1C[C@@H](NC(=O)Nc2c(C)c(-c3cnn(C)c3)nn2-c2ccccc2)[C@H](c2ccnc(F)c2)O1 (racemic) [Compound I-91]
IC50 [5]: < 100 nM

COCCN1C[C@@H](NC(=O)Nc2c(C)c(-c3cnc(C(N)=O)c(F)c3)nn2-c2ccccc2)[C@H](c2ccc(F)c(F)c2)O1 [Compound I-312]
IC50 [4]: < 100 nM

COCCN1C[C@@H](NC(=O)Nc2c(C)c(-c3ccnc(C(=O)NOC)c3)nn2-c2ccccc2)[C@H](c2cnc(F)c(F)c2)O1 [Compound I-233]
IC50 [1]: 1.5 nM

COCCN1C[C@@H](NC(=O)Nc2c(C)c(-c3cnc(N4CCN(C)C(=O)C4)nc3)nn2-c2ccccc2)[C@H](c2ccnc(F)c2)O1 (racemic) [Compound I-488]
IC50 [6]: < 100 nM

COCCN1C[C@@H](NC(=O)Nc2c(C)c(-c3cnc(OC)nc3)nn2-c2ccccc2)[C@H](c2ccc(F)c(F)c2)O1 [Compound I-407]
IC50 [6]: < 100 nM

CCN1C[C@@H](NC(=O)Nc2c(C)c(-c3cnc(N4CC(OC)C4)nc3)nn2-c2ccccc2)[C@H](c2ccc(F)c(F)c2)O1 (racemic) [Compound I-628]
IC50 [2]: < 100 nM

COCCN1C[C@@H](NC(=O)Nc2c(C)c(-c3cnc(OC)c(C(N)=O)c3)nn2-c2ccc(F)cc2)[C@H](c2ccnc(F)c2)O1 (racemic) [Compound I-238]
IC50 [4]: < 100 nM

COCCN1C[C@@H](NC(=O)Nc2c(C)c(-c3ccc(N4CCNCC4)nc3)nn2-c2ccccc2)[C@H](c2ccnc(F)c2)O1 (racemic) [Compound I-374]
IC50 [6]: < 100 nM

COCCN1C[C@@H](NC(=O)Nc2c(C)c(-c3cnc(N4CCC4)nc3)nn2-c2ccccc2)[C@H](c2ccnc(F)c2)O1 (racemic) [Compound I-266]
IC50 [4]: < 100 nM

CCN1C[C@@H](NC(=O)Nc2c(C)c(OCCCC(=O)NC3CC3)nn2-c2ccccc2)[C@H](c2ccc(F)c(F)c2)O1 (racemic) [Compound I-665]
IC50 [2]: < 100 nM

COCCN1C[C@@H](NC(=O)Nc2c(C)c(-c3cnc4c(c3)N(C)CCO4)nn2-c2ccccc2)[C@H](c2ccnc(F)c2)O1 (racemic) [Compound I-340]
IC50 [6]: < 100 nM

COCCN1C[C@@H](NC(=O)Nc2c(C)c(-c3cnc(OC)c(C(N)=O)c3)nn2-c2ccccc2)[C@H](c2cnc(F)c(F)c2)O1 [Compound I-180]
IC50 [4]: < 100 nM

COCCN1C[C@@H](NC(=O)Nc2c(C)c(-c3cnc(N4CC5(COC5)C4)nc3)nn2-c2ccccc2)[C@H](c2ccnc(F)c2)O1 (racemic) [Compound I-373]
IC50 [6]: < 100 nM

CNC(=O)c1cc(-c2nn(-c3ccccc3)c(NC(=O)N[C@@H]3CN(CCC(F)(F)F)O[C@H]3c3ccc(F)c(F)c3)c2C)cnc1OC (racemic) [Compound I-623]
IC50 [2]: 100 to 1000 nM

COCCN1C[C@@H](NC(=O)Nc2c(C)c(-c3cnc4c(c3)[nH]c(=O)n4C)nn2-c2ccccc2)[C@H](c2ccc(F)c(F)c2)O1 [Compound I-218]
IC50 [4]: < 100 nM

COCCN1C[C@@H](NC(=O)Nc2c(C)c(-c3cnc4occc4c3)nn2-c2ccccc2)[C@H](c2ccnc(F)c2)O1 (racemic) [Compound I-517]
IC50 [3]: < 100 nM

CCN1C[C@@H](NC(=O)Nc2c(C)c(OCCCN(C)C)nn2-c2ccccc2)[C@H](c2ccc(F)c(F)c2)O1 (racemic) [Compound I-610]
IC50 [2]: < 100 nM

COCCN1C[C@@H](NC(=O)Nc2c(C)c(-c3cnc(COC)nc3)nn2-c2ccccc2)[C@H](c2ccnc(F)c2)O1 (racemic) [Compound I-444]
IC50 [6]: < 100 nM

CNC(=O)c1ncc(-c2nn(-c3ccccc3)c(NC(=O)N[C@@H]3CN(CCOC)O[C@H]3c3cnc(F)c(F)c3)c2C)cc1C [Compound I-253]
IC50 [1]: 1.3 nM

COCCN1C[C@@H](NC(=O)Nc2c(C)c(-c3cc(CO)c(=O)n(C)c3)nn2-c2ccccc2)[C@H](c2ccc(F)c(F)c2)O1 (racemic) [Compound I-125]
IC50 [5]: < 100 nM

COCCN1C[C@@H](NC(=O)Nc2c(C)c(-c3cnc(C(N)=O)c(Cl)c3)nn2-c2ccccc2)[C@H](c2ccnc(F)c2)O1 (racemic) [Compound I-316]
IC50 [4]: < 100 nM

COCCN1C[C@@H](NC(=O)Nc2c(C)c(-c3cnc4c(cnn4CC(F)(F)F)c3)nn2-c2ccccc2)[C@H](c2ccnc(F)c2)O1 (racemic) [Compound I-228]
IC50 [4]: < 100 nM

CCN1C[C@@H](NC(=O)Nc2c(C)c(OCC3CCNCC3)nn2-c2ccccc2)[C@H](c2ccc(F)c(F)c2)O1 (racemic) [Compound I-559]
IC50 [3]: < 100 nM

COCCN1C[C@@H](NC(=O)Nc2c(C)c(OC3CCN(C(=O)OC(C)(C)C)CC3)nn2-c2ccccc2)[C@H](c2ccc(F)c(F)c2)O1 [Compound I-601]
IC50 [2]: < 100 nM

COCCN1C[C@@H](NC(=O)Nc2c(C)c(-c3cnc(C(=O)NCC4CC4)c(C)c3)nn2-c2ccccc2)[C@H](c2ccnc(F)c2)O1 (racemic) [Compound I-170]
IC50 [5]: < 100 nM

COCCNC(=O)c1ncc(-c2nn(-c3ccccc3)c(NC(=O)N[C@@H]3CN(CCOC)O[C@H]3c3ccnc(F)c3)c2C)cc1C (racemic) [Compound I-173]
IC50 [5]: < 100 nM

COCCN1C[C@@H](NC(=O)Nc2c(C)c(OCc3ccccn3)nn2-c2ccccc2)[C@H](c2ccnc(F)c2)O1 (racemic) [Compound I-454]
IC50 [6]: < 100 nM

COCCN1C[C@@H](NC(=O)Nc2c(C)c(-c3ccc(C)nc3F)nn2-c2ccccc2)[C@H](c2ccnc(F)c2)O1 (racemic) [Compound I-350]
IC50 [6]: < 100 nM
